Source: patent US20210255193A1, “LYSINE REACTIVE PROBES AND USES THEREOF” (The Scripps Research Institute, priority 2017, published 2021)

Key:
[1] = target: T1, AP1G1 AP-1 complex subunit gamma-1 (Homo sapiens, UniProt O43747); test: competitive isoTOP-ABPP; assay type: binding; settings: for isoTOP-ABPP ratio (R) at liganded lysine O43747_K214: 50 uM, in vitro, sol, 231
T1 construct: isoTOP-ABPP experiments performed in cell lysates (in vitro); endogenous in cells; host or cells: MDA-MB-231 soluble lysate
T1 sequence (O43747 1-822): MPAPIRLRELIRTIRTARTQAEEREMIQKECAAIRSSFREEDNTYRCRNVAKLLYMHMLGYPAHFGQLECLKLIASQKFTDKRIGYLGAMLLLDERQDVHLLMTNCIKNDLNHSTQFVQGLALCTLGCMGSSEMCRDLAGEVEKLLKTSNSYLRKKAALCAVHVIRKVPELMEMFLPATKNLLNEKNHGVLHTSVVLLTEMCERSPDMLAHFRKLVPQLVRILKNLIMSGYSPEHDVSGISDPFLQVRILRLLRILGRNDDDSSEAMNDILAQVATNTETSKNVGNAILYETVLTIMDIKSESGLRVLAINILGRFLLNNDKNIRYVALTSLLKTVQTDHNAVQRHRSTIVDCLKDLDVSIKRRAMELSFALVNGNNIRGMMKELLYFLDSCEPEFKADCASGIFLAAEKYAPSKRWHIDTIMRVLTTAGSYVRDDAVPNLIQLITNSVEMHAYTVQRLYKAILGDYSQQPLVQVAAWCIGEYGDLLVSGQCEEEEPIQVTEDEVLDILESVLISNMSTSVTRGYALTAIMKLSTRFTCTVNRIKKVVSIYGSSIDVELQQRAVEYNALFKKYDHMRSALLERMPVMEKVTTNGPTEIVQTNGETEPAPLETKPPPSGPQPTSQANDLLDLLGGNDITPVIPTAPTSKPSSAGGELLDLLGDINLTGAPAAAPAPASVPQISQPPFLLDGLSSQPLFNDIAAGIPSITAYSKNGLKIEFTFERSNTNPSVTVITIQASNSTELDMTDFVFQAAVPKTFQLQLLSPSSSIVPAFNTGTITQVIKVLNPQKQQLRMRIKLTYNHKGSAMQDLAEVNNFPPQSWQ
In short: (§1)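 Cell lysate (0.5 ml) was pre-treated with fragment, 50 μM for activated esters or 100 μM for guanidinylating agents, versus DMSO, then labeled 1 h at ambient temperature with 0.1 mM STP-alkyne. Light/heavy TEV tags attached by CuAAC; R = DMSO/compound MS1 peak-area ratio, median per lysine.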

[2] = target: T2, HNRNPK Heterogeneous nuclear ribonucleoprotein K (Homo sapiens, UniProt P61978); test: competitive isoTOP-ABPP; assay type: binding; settings: for isoTOP-ABPP ratio (R) at liganded lysine P61978_K405: 50 uM, in vitro, sol, 231
T2 construct: isoTOP-ABPP experiments performed in cell lysates (in vitro); endogenous in cells; host or cells: soluble proteome of human cancer cell lines (MDA-MB-231, Ramos, Jurkat)
In short: as §1

SMILES	isoTOP-ABPP ratio (R) at liganded lysine O43747_K214 [1]	isoTOP-ABPP ratio (R) at liganded lysine P61978_K405 [2]	isoTOP-ABPP ratio, lysine O43747_K214 ([1]; 50 uM_231_sol_in vitro)	isoTOP-ABPP ratio, lysine P61978_K405 ([2]; 50 uM_231_sol_in vitro)	other results
O=C(Oc1ccc([N+](=O)[O-])cc1[N+](=O)[O-])c1ccc(Oc2ccccc2)cc1 [fragment 39, 2,4-Dinitrophenyl 4-phenoxybenzoate]	0.8	0.8	–	–	–
O=C(Oc1ccc([N+](=O)[O-])cc1[N+](=O)[O-])c1ccccc1Nc1cccc(C(F)(F)F)c1 [fragment 40, 2,4-Dinitrophenyl 2-((3-(trifluoromethyl)phenyl)amino)benzoate]	0.9	0.9	–	–	–
CC(C)(C)OC(=O)NCCCC(=O)Oc1ccc([N+](=O)[O-])cc1[N+](=O)[O-] [fragment 41, 2,4-Dinitrophenyl 4-((tert-butoxycarbonyl)amino)butanoate]	1.0	1.0	–	–	–
CC(=O)Oc1ccc([N+](=O)[O-])cc1[N+](=O)[O-] [fragment 43, 2,4-Dinitrophenyl acetate]	1.1	1.3	–	–	–
N#Cc1ccc(C(=O)Oc2ccc([N+](=O)[O-])cc2[N+](=O)[O-])cc1 [fragment 44, 2,4-Dinitrophenyl 4-cyanobenzoate]	–	–	0.9	1.0	–
O=C(CCc1ccc2c(c1)OCO2)Oc1ccc([N+](=O)[O-])cc1[N+](=O)[O-] [fragment 45, 2,4-Dinitrophenyl 3-(benzo[d][1,3]dioxol-5-yl)propanoate]	–	–	1.2	1.1	–
O=C(ON1C(=O)CCC1=O)c1cc(C(F)(F)F)cc(C(F)(F)F)c1 [fragment 46, 3,5-Bis(trifluoromethyl)benzoic acid NHS ester]	–	–	1.0	1.1	–
COC(=O)NC(=NC(=O)OCC1c2ccccc2-c2ccccc21)n1cccn1 [fragment 49, N-Methoxycarbonyl-N′-9-fluorenylmethoxycarbonyl-pyrazole-1-carboxamidine]	–	–	–	–	isoTOP-ABPP ratio, lysine O43747_K214 ([1]; 100 uM_231_sol_in vitro): 1.0; isoTOP-ABPP ratio, lysine P61978_K405 ([2]; 100 uM_231_sol_in vitro): 1.9
CC(C)(C)OC(=O)N=C(NC(=O)OC(C)(C)C)n1cccn1 [fragment 50, reference compound]	–	–	–	–	isoTOP-ABPP ratio, lysine O43747_K214 ([1]; 100 uM_231_sol_in vitro): 1.0; isoTOP-ABPP ratio, lysine P61978_K405 ([2]; 100 uM_231_sol_in vitro): 1.3
NC(=O)c1cc(C(F)(F)F)cc(C(F)(F)F)c1 [fragment 51, reference compound]	–	–	0.9	1.2	–
